Source: PubChem BioAssay AID2060333 (Molecular Pharmacology Branch, DTP, NCI, 2025)

System: 845751-090-R-J2-PDC tumor spheroid viability
Test: Anticancer human tumor 845751-090-R-J2-PDC patient-derived head and neck squamous carcinoma cell line growth inhibition [IpAb]
Details: spheroids with HUVEC and MSC; for IC50: curve of first compound; for viability, T/C: stronger effect = lower value
How it was run: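 Spheroids of 60% malignant cells, 25% HUVEC and 15% MSC were exposed to targeted agents combined with ipatasertib or abemaciclib. Doses started at or near clinical Cmax (10 microM when unknown) and fell in half-log steps.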

[1] = second compound 0.01 µM, first compound 0.0316 µM
[2] = second compound 0.01 µM, first compound 0.1 µM
[3] = second compound 0.0316 µM, first compound 0.0316 µM
[4] = second compound 0.0316 µM, first compound 0.1 µM
[5] = second compound 0.1 µM, first compound 0.0316 µM
[6] = second compound 0.1 µM, first compound 0.1 µM
[7] = second compound 0.316 µM, first compound 0.0316 µM
[8] = second compound 0.316 µM, first compound 0.1 µM
[9] = second compound 1 µM, first compound 0.0316 µM
[10] = second compound 1 µM, first compound 0.1 µM
[11] = second compound 0.01 µM, first compound 0.316 µM
[12] = second compound 0.01 µM, first compound 1 µM
[13] = second compound 0.01 µM, first compound 3.16 µM
[14] = second compound 0.01 µM, first compound 10 µM
[15] = second compound 0.0316 µM, first compound 0.316 µM
[16] = second compound 0.0316 µM, first compound 1 µM
[17] = second compound 0.0316 µM, first compound 3.16 µM
[18] = second compound 0.0316 µM, first compound 10 µM
[19] = second compound 0.1 µM, first compound 0.316 µM
[20] = second compound 0.1 µM, first compound 1 µM
[21] = second compound 0.1 µM, first compound 3.16 µM
[22] = second compound 0.1 µM, first compound 10 µM
[23] = second compound 0.316 µM, first compound 0.316 µM
[24] = second compound 0.316 µM, first compound 1 µM
[25] = second compound 0.316 µM, first compound 3.16 µM
[26] = second compound 0.316 µM, first compound 10 µM
[27] = second compound 1 µM, first compound 0.316 µM
[28] = second compound 1 µM, first compound 1 µM
[29] = second compound 1 µM, first compound 3.16 µM
[30] = second compound 1 µM, first compound 10 µM
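Also: spheroids exposed to compounds for 7 days before readout.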
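For viability, T/C in this document: CTG3D luminescence normalised so that 100% = DMSO vehicle control.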

CC(C)n1nc(-c2ccc3oc(N)nc3c2)c2c(N)ncnc21 + CCN1CCN(Cc2ccc(Nc3ncc(F)c(-c4cc(F)c5nc(C)n(C(C)C)c5c4)n3)nc2)CC1
IC50 (second compound 0.01 µM): 1.1 nM
IC50 (second compound 0.0316 µM): 3.84 nM
IC50 (second compound 0.1 µM): 2.92 nM
IC50 (second compound 0.316 µM): 2.75 nM
IC50 (second compound 1 µM): 12.3 nM
viability, T/C (second compound 0.01 µM, first compound 0.000316 µM): 72.6%
viability, T/C (second compound 0.01 µM, first compound 0.001 µM): 47.8%
viability, T/C (second compound 0.01 µM, first compound 0.00316 µM): 39.2%
viability, T/C (second compound 0.01 µM, first compound 0.01 µM): 33%
viability, T/C [1]: 26.8%
viability, T/C [2]: 21.1%
viability, T/C (second compound 0.0316 µM, first compound 0.000316 µM): 66.7%
viability, T/C (second compound 0.0316 µM, first compound 0.001 µM): 68.2%
viability, T/C (second compound 0.0316 µM, first compound 0.00316 µM): 54.3%
viability, T/C (second compound 0.0316 µM, first compound 0.01 µM): 28.1%
viability, T/C [3]: 26.6%
viability, T/C [4]: 23.5%
viability, T/C (second compound 0.1 µM, first compound 0.000316 µM): 62.6%
viability, T/C (second compound 0.1 µM, first compound 0.001 µM): 50.2%
viability, T/C (second compound 0.1 µM, first compound 0.00316 µM): 52.2%
viability, T/C (second compound 0.1 µM, first compound 0.01 µM): 30.3%
viability, T/C [5]: 25.7%
viability, T/C [6]: 20.6%
viability, T/C (second compound 0.316 µM, first compound 0.000316 µM): 47.5%
viability, T/C (second compound 0.316 µM, first compound 0.001 µM): 56.6%
viability, T/C (second compound 0.316 µM, first compound 0.00316 µM): 49.6%
viability, T/C (second compound 0.316 µM, first compound 0.01 µM): 33.4%
viability, T/C [7]: 32.7%
viability, T/C [8]: 30.2%
viability, T/C (second compound 1 µM, first compound 0.000316 µM): 56.7%
viability, T/C (second compound 1 µM, first compound 0.001 µM): 74%
viability, T/C (second compound 1 µM, first compound 0.00316 µM): 57.7%
viability, T/C (second compound 1 µM, first compound 0.01 µM): 49%
viability, T/C [9]: 45.5%
viability, T/C [10]: 34.7%

CC1(C)CCC(CN2CCN(c3ccc(C(=O)NS(=O)(=O)c4ccc(NCC5CCOCC5)c([N+](=O)[O-])c4)c(Oc4cnc5[nH]ccc5c4)c3)CC2)=C(c2ccc(Cl)cc2)C1 + CCN1CCN(Cc2ccc(Nc3ncc(F)c(-c4cc(F)c5nc(C)n(C(C)C)c5c4)n3)nc2)CC1
IC50 (second compound 0.01 µM): 7510 nM
IC50 (second compound 0.0316 µM): 7030 nM
IC50 (second compound 0.1 µM): 6370 nM
IC50 (second compound 0.316 µM): 6410 nM
IC50 (second compound 1 µM): 6750 nM
viability, T/C [1]: 104%
viability, T/C [2]: 119%
viability, T/C [11]: 103%
viability, T/C [12]: 91.3%
viability, T/C [13]: 138%
viability, T/C [14]: 29.8%
viability, T/C [3]: 136%
viability, T/C [4]: 90.5%
viability, T/C [15]: 80.8%
viability, T/C [16]: 93.6%
viability, T/C [17]: 137%
viability, T/C [18]: 24.4%
viability, T/C [5]: 75%
viability, T/C [6]: 72.2%
viability, T/C [19]: 94.6%
viability, T/C [20]: 104%
viability, T/C [21]: 117%
viability, T/C [22]: 22.7%
viability, T/C [7]: 74.6%
viability, T/C [8]: 108%
viability, T/C [23]: 92.3%
viability, T/C [24]: 85.3%
viability, T/C [25]: 115%
viability, T/C [26]: 21.6%
viability, T/C [9]: 106%
viability, T/C [10]: 107%
viability, T/C [27]: 102%
viability, T/C [28]: 115%
viability, T/C [29]: 123%
viability, T/C [30]: 18.5%

CCCS(=O)(=O)Nc1ccc(F)c(C(=O)c2c[nH]c3ncc(-c4ccc(Cl)cc4)cc23)c1F + CCN1CCN(Cc2ccc(Nc3ncc(F)c(-c4cc(F)c5nc(C)n(C(C)C)c5c4)n3)nc2)CC1
IC50 (second compound 0.01 µM): 590 nM
IC50 (second compound 0.0316 µM): 681 nM
IC50 (second compound 0.1 µM): 454 nM
IC50 (second compound 0.316 µM): 582 nM
IC50 (second compound 1 µM): 907 nM
viability, T/C [1]: 95%
viability, T/C [2]: 70.8%
viability, T/C [11]: 52.4%
viability, T/C [12]: 50.7%
viability, T/C [13]: 35%
viability, T/C [14]: 24.7%
viability, T/C [3]: 86.4%
viability, T/C [4]: 64.9%
viability, T/C [15]: 66.6%
viability, T/C [16]: 43.4%
viability, T/C [17]: 30.9%
viability, T/C [18]: 20.5%
viability, T/C [5]: 65%
viability, T/C [6]: 60.2%
viability, T/C [19]: 58.8%
viability, T/C [20]: 30.9%
viability, T/C [21]: 23.2%
viability, T/C [22]: 29.5%
viability, T/C [7]: 74.2%
viability, T/C [8]: 65.7%
viability, T/C [23]: 63.4%
viability, T/C [24]: 38.6%
viability, T/C [25]: 28.6%
viability, T/C [26]: 23%
viability, T/C [9]: 81.5%
viability, T/C [10]: 81.2%
viability, T/C [27]: 70.3%
viability, T/C [28]: 47.4%
viability, T/C [29]: 38.1%
viability, T/C [30]: 32.1%
